How the values were obtained:
[1] = biological target: T1, Amine oxidase [flavin-containing] A (Homo sapiens, UniProt P21397); experiment: Inhibiton Assay
T1 sequence (P21397 whole entry): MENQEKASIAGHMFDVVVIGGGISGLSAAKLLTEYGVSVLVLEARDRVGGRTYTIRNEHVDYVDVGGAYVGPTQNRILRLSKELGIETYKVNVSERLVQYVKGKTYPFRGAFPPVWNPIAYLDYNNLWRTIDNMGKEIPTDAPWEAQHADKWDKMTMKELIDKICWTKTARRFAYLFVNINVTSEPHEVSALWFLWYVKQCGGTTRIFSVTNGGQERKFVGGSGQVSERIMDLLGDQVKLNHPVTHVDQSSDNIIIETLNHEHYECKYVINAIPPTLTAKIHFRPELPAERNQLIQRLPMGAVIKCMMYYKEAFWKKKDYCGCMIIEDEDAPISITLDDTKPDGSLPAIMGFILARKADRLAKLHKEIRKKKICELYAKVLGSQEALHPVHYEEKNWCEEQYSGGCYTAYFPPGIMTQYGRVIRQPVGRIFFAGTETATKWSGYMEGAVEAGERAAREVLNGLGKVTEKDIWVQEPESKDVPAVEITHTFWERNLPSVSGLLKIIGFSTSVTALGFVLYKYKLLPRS
Description: (§1) Inhibition assay using MAO-A and MAO-B.

[2] = biological target: T2, Amine oxidase [flavin-containing] B (Homo sapiens, UniProt P27338); experiment: Inhibiton Assay
T2 sequence (P27338 whole entry): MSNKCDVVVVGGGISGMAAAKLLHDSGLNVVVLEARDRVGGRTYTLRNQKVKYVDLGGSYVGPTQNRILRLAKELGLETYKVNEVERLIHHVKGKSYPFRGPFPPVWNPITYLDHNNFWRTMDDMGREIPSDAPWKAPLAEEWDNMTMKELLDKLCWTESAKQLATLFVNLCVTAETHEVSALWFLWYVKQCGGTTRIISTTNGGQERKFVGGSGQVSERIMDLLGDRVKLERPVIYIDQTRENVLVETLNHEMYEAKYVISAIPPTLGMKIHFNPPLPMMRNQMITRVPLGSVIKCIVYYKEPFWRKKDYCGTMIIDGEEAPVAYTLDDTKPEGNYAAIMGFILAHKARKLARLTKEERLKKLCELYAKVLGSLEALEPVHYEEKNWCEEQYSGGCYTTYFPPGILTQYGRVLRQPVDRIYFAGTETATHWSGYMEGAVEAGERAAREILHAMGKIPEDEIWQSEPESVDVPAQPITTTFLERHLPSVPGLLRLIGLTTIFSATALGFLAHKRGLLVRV
Description: as §1

Ki [1] | IC50 [2] | Structure (SMILES)
5.5 µM | 850 µM | C[n+]1ccc(Cc2cccc3ccccc23)cc1 [MPP analogue, 19]
37 µM | 12 µM | C[n+]1ccc(CCc2ccccc2)cc1 [MPP analogue, 17]

Structure (SMILES) | Ki [1] | IC50 [2]
C[n+]1ccc(Cc2ccccc2F)cc1 [MPP analogue, 18] | 29 µM | 2000 µM

Reference: BindingDB's records for doi:10.1021/bi00139a026 (University of California San Francisco, 1992)
